Reference: patent US10065990B2, “Cyclic peptide compound, and preparation method, pharmaceutical composition and use thereof” (HANGZHOU GUANYU BIO-MEDICAL CO., LTD, priority 2013, dated 2018)
Like-named read-outs stand apart in the source and are kept apart here.

Columns and labels:
Test in all cases: HDAC biochemical activity measurement (fluorescent substrate deacetylation);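 on IC50 HDAC7: fluorogenic deacetylation assay using acetyl-lysine substrate at 20 µM, enzyme and compound incubated 30 min at 37 °C, then developer added, fluorescence read at 360/460 nm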
HDAC8 = target: T1, HDAC8 (Homo sapiens, UniProt Q9BY41); details: 37° C. 30 minutes
T1 sequence (Q9BY41 1-377): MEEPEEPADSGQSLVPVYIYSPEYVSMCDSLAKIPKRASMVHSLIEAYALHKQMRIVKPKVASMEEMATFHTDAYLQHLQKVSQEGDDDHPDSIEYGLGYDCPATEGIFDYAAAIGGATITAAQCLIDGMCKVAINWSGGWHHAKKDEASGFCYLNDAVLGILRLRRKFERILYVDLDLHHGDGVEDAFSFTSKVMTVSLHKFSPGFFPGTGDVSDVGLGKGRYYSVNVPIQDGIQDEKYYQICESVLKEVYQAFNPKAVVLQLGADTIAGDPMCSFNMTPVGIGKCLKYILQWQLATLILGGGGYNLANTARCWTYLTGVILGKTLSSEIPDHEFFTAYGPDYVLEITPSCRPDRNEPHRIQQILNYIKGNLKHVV
Method: (§1) The chemical activity of the compound is determined according to the degree of deacetylation inhibition of the HDAC enzyme. This experiment measured the degree of deacetylation related to tumor proliferation and metastasis of HDAC1, HDAC2, HDAC3, HDAC8, HDAC11 five subtypes HDAC enzymes. After the substrate containing an acetylated lysine side chain and HDAC enzyme are labeled with a fluorescent label, the fluorescent substrate is de acetyl. The fluorescent labeled substrate is cleaved by the enzyme, and the fluorescent substance is released, which generates 460 nm emission light under the excitation of 360 nm light.
(§2) HDAC substrate was diluted with reaction buffer to 200M (reaction concentration of 20M), the HDAC enzyme was diluted to the appropriate concentration, then added different concentrations of the test compounds and acted at 37° C. 30 minutes, and then added the same volume of 2-times concentration substrate developing solution (developer), incubated at room temperature for 15 minutes.

HDAC7 = target: T2, HDAC7 (Homo sapiens, UniProt Q8WUI4); details: HDAC7; 37° C. 30 minutes;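 further: fluorogenic deacetylation assay using acetyl-lysine substrate at 20 µM, enzyme and compound incubated 30 min at 37 °C, then developer added, fluorescence read at 360/460 nm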
T2 sequence (Q8WUI4 1-952): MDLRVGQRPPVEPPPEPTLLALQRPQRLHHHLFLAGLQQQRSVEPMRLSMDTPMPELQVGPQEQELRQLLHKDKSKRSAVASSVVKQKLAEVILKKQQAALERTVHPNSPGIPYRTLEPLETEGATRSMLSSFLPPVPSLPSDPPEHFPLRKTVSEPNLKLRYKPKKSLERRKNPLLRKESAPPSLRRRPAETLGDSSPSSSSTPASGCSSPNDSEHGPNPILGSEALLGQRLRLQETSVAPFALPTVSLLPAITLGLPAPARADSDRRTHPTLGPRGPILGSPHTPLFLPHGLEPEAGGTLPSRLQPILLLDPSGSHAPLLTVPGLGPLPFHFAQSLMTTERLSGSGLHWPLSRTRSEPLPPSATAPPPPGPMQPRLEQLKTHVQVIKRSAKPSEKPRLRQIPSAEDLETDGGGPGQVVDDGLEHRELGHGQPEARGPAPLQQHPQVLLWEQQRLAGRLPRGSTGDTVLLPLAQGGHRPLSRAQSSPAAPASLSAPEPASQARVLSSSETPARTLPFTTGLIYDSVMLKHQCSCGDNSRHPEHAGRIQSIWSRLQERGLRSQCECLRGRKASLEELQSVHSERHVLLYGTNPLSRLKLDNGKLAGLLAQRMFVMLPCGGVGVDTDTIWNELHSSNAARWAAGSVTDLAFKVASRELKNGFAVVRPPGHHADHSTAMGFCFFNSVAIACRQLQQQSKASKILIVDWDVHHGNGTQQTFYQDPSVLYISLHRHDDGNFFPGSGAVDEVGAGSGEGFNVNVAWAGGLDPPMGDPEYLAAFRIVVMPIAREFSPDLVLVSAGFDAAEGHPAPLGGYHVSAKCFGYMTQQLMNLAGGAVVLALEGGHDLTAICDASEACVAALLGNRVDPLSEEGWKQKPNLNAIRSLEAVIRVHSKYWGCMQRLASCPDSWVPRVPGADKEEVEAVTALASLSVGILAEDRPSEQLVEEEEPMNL

HDAC11 = target: T3, HDAC11 (Homo sapiens, UniProt Q96DB2);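 further: HDAC11 enzyme acting on an acetyl-lysine fluorogenic substrate, then a developer frees the fluorophore, read at excitation 360 nm and emission 460 nm, IC50 over a compound dilution series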
T3 sequence (Q96DB2 1-347): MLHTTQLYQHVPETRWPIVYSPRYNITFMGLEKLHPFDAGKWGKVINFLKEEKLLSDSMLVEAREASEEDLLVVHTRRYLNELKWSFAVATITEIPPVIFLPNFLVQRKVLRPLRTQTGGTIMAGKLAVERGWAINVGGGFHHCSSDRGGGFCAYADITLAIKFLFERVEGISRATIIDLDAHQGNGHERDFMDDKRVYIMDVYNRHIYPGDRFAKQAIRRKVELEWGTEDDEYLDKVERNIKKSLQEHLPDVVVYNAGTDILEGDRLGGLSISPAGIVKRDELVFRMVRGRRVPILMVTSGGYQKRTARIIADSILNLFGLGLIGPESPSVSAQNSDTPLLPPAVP
Method: as §1, §2

[1] = read-out: IC50 HDAC11, HDAC11, 37° C. 30 minutes

IC50 (HDAC8)	IC50 HDAC7 (HDAC7)	IC50 (HDAC11; [1])	IC50 (HDAC11)	SMILES
43 nM	no activity	83 nM	–	C/C=C1\NC(=O)c2cc(F)cc(n2)CNC(=O)C[C@@H](/C=C/CCSC(=O)CCCCCCC)OC(=O)[C@H](CC)NC1=O [Compound 55]
43 nM	no activity	94 nM	–	C/C=C1\NC(=O)c2cc(F)cc(n2)CNC(=O)C[C@@H](/C=C/CCSC(=O)CCC)OC(=O)[C@H](C(C)C)NC1=O [Compound 43]
43 nM	no activity	84 nM	–	C/C=C1\NC(=O)c2nc(ccc2F)CNC(=O)C[C@@H](/C=C/CCSC(=O)CCCCCCC)OC(=O)[C@H](C(C)C)NC1=O [Compound 30]
42 nM	no activity	–	92 nM	C/C=C1\NC(=O)c2ccc(SC)c(n2)CNC(=O)C[C@@H](/C=C/CCSC(C)=O)OC(=O)[C@H](CC)NC1=O [Compound 179]
81 nM	no activity	97 nM	–	C/C=C1\NC(=O)c2cccc(n2)CNC(=O)C[C@@H](/C=C/CCSC(C)=O)OC(=O)[C@H](Cc2cccc3ccccc23)NC1=O [Compound 17]
50 nM	no activity	–	103 nM	C/C=C1\NC(=O)c2cccc(n2)CNC(=O)C[C@@H](/C=C/CCSC(C)=O)OC(=O)[C@H](CC)NC1=O [Compound 10]
52 nM	no activity	–	56 nM	C/C=C1\NC(=O)c2cccc(n2)CNC(=O)C[C@@H](/C=C/CCSC(=O)CCCCCCC)OC(=O)[C@H](CCSC)NC1=O [Compound 240]
16 nM	no activity	–	93 nM	C/C=C1\NC(=O)c2nc(ccc2F)CCNC(=O)C[C@@H](/C=C/CCSC(C)=O)OC(=O)[C@H](C(C)C)NC1=O [Compound 103]
45 nM	no activity	96 nM	–	C/C=C1\NC(=O)c2cc(F)cc(n2)CNC(=O)C[C@@H](/C=C/CCSC(=O)CCCC)OC(=O)[C@H](C(C)C)NC1=O [Compound 40]
69 nM	no activity	–	55 nM	C/C=C1\NC(=O)c2cc(SCCC)cc(n2)CNC(=O)C[C@@H](/C=C/CCSC(=O)CCCCCCC)OC(=O)[C@H](CC)NC1=O [Compound 175]
47 nM	no activity	19 nM	–	C/C=C1\NC(=O)c2cccc(n2)CNC(=O)C[C@@H](/C=C/CCSC(=O)CCCCCCC)OC(=O)CNC1=O [Compound 235]
65 nM	no activity	87 nM	–	CC(=O)SCC/C=C/[C@@H]1CC(=O)NCc2cccc(n2)C(=O)NC(=C(C)C)C(=O)N[C@@H](C(C)C)C(=O)O1 [Compound 20]
28 nM	no activity	94 nM	–	C/C=C1\NC(=O)c2cc(F)cc(n2)CNC(=O)C[C@@H](/C=C/CCSC(C)=O)OC(=O)[C@H](CCCCNC(=O)OCC2c3ccccc3-c3ccccc32)NC1=O [Compound 76]
69 nM	no activity	103 nM	–	C=C1NC(=O)c2cccc(n2)CNC(=O)C[C@@H](/C=C/CCSC(C)=O)OC(=O)[C@H](C(C)C)NC1=O [Compound 19]
49 nM	no activity	–	93 nM	C/C=C1\NC(=O)c2cc(SC)cc(n2)CNC(=O)C[C@@H](/C=C/CCSC(C)=O)OC(=O)[C@H](CCCCN)NC1=O [Compound 193]
13 nM	no activity	–	99 nM	C/C=C1\NC(=O)c2nc(ccc2SC)CNC(=O)C[C@@H](/C=C/CCSC=O)OC(=O)[C@H](C(C)C)NC1=O [Compound 168]

IC50 (HDAC8)	IC50 HDAC7 (HDAC7)	IC50 (HDAC11; [1])	IC50 (HDAC11)	SMILES
71 nM	no activity	81 nM	–	C/C=C1\NC(=O)c2cccc(n2)CNC(=O)C[C@@H](/C=C/CCSC(=O)CCCCCCC)OC(=O)[C@H](C)NC1=O [Compound 11]
78 nM	no activity	65 nM	–	C/C=C1\NC(=O)c2cccc(n2)CNC(=O)C[C@@H](/C=C/CCSC(=O)CCCCCCC)OC(=O)[C@H](c2ccc(O)cc2)NC1=O [Compound 238]
35 nM	no activity	85 nM	–	C/C=C1\NC(=O)c2nc(ccc2F)CNC(=O)C[C@@H](/C=C/CCSC(=O)CCCCC)OC(=O)[C@H](C(C)C)NC1=O [Compound 36]
28 nM	no activity	–	72 nM	C/C=C1\NC(=O)c2nc(ccc2SC)CNC(=O)C[C@@H](/C=C/CCSC(=O)CCCCC)OC(=O)[C@H](C(C)C)NC1=O [Compound 153]
21 nM	no activity	–	98 nM	C/C=C1\NC(=O)c2nc(ccc2SCCC)CNC(=O)C[C@@H](/C=C/CCSC(=O)CCCCCCC)OC(=O)[C@H](CC)NC1=O [Compound 174]
43 nM	no activity	–	97 nM	C/C=C1\NC(=O)c2cccc(n2)CCNC(=O)C[C@@H](/C=C/CCS)OC(=O)[C@H](C(C)C)NC1=O [Compound 146]
35 nM	no activity	82 nM	–	C/C=C1\NC(=O)c2cc(F)cc(n2)CNC(=O)C[C@@H](/C=C/CCSC(=O)CC)OC(=O)[C@H](C(C)C)NC1=O [Compound 46]
29 nM	no activity	–	83 nM	C/C=C1\NC(=O)c2cccc(n2)CNC(=O)C[C@@H](/C=C/CCS)OC(=O)[C@@H](C)NC1=O [Compound 145]
35 nM	no activity	–	95 nM	C/C=C1\NC(=O)c2nc(ccc2SC)CNC(=O)C[C@@H](/C=C/CCSC(=O)CCCCCCC)OC(=O)[C@H](CC)NC1=O [Compound 171]
38 nM	no activity	–	95 nM	C/C=C1\NC(=O)c2cc(SC)cc(n2)CNC(=O)C[C@@H](/C=C/CCSC(=O)CCCCCC)OC(=O)[C@H](C(C)C)NC1=O [Compound 151]
41 nM	no activity	–	97 nM	C/C=C1\NC(=O)c2cccc(n2)CNC(=O)C[C@@H](/C=C/CCSC=O)OC(=O)[C@H](C(C)C)NC1=O [Compound 8]
30 nM	no activity	380 nM	–	C/C=C1\NC(=O)c2cccc(n2)CNC(=O)C[C@@H](/C=C/CCSC(=O)CCCCCCC)OC(=O)[C@H](C(C)C)NC1=O [Compound 1]
52 nM	no activity	81 nM	–	C/C=C1\NC(=O)c2nc(cc(SC)n2)CNC(=O)C[C@@H](/C=C/CCSC(C)=O)OC(=O)[C@H](C(C)C)NC1=O [Compound 216]
57 nM	no activity	103 nM	–	C/C=C1\NC(=O)c2cccc(n2)CNC(=O)C[C@@H](/C=C/CCSC(=O)CCCCCCC)OC(=O)[C@H](Cc2ccccc2)NC1=O [Compound 14]
67 nM	no activity	111 nM	–	C/C=C1\NC(=O)c2cccc(n2)CNC(=O)C[C@@H](/C=C/CCSC(=O)CCC)OC(=O)[C@H](C(C)C)NC1=O [Compound 5]
59 nM	no activity	89 nM	–	C/C=C1\NC(=O)c2nc(ccc2F)CNC(=O)C[C@@H](/C=C/CCSC(=O)CCCCCC)OC(=O)[C@H](C(C)C)NC1=O [Compound 33]
